Source: PMC10382351, “In vivo evaluation of a novel ^18F-labeled PET radioligand for translocator protein 18 kDa (TSPO) in monkey brain” (European Journal of Nuclear Medicine and Molecular Imaging, 2023)
“And” between values parts separate entries of the source, which are not always exact repeats. Equal entries are not always repeated. “Also recorded” adds a separate entry of the source.

Test system: 18 kDa translocator protein (TSPO)
Assay: PET imaging of [^18F]SF51 in rhesus monkey brain with kinetic analysis (2TCM, Logan plot, Lassen plot)
Type: in vivo
Conditions: for Estimated K1: three rhesus monkeys; for VT/fP using Logan plot: n=3
Protocol: Electrocardiogram, body temperature, heart rate, and respiratory rate measures were monitored throughout the scan.
Brain PET imaging was performed using a microPET Focus 220 camera (Siemens Medical Solution; Knoxville, TN). […] For baseline experiments, 20 mL of a vehicle containing 20% (2-hydroxypropyl)-β-cyclodextrin and two equivalents of HCl were injected intravenously 10 min before radioligand administration. For the blocked experiment, PK11195 was dissolved in vehicle and then injected intravenously (5 mg/kg) 10 min before radioligand injection for all three monkeys. One of the three monkeys underwent an additional blocked scan with 5 mg/kg of PBR28, performed using a MultiScan™ LFER 150 PET/CT (Mediso USA, LLC; Arlington, VA). The interval between baseline and blocked imaging sessions was at least three weeks in order to allow the monkey to recover from arterial blood sampling. Focus 220 PET images were histogrammed into 30 time frames (6 × 30, 3 × 60, 2 × 120, 4 × 300, and 15 × 600 s) and reconstructed using Fourier rebinning plus a two-dimensional filtered back-projection with scatter and attenuation correction. MultiScan LFER PET images were reconstructed with 3D-OSEM with two iterations and nine subsets and were corrected for scatter and attenuation.
PET images were co-registered to a standardized monkey MRI template using PMOD software (PMOD version 4.1, PMOD Technologies Ltd.; Zurich, Switzerland). Thirty-three predefined regions of interest (ROIs) from a monkey brain template were applied to the co-registered PET images to obtain regional time-activity curves (Supplementary Table S2). Brain uptake was expressed as standardized uptake value (SUV), which normalizes for injected radioactivity and body weight. Using the brain time-activity curves and the radiometabolite-corrected arterial input function, the total VT was derived from a two-tissue compartment model (2TCM). Receptor occupancy by PK11195 and nondisplaceable distribution volume (VND/fP) of [^18F]SF51 were determined by an axes-transformed Lassen plot, where the y-axis reports the difference in VT between the baseline and the blocked scans, corrected by the respective fp values, and the x-axis reports the values at baseline (VTbase/fPbase).

CC[C@@H](C)N(C)C(=O)c1nc(-c2cccc([18F])c2)c2ccccc2n1 [[^18F]SF51]
VT/fP (Baseline, Amygdala, 2TCM, n = 3): 242 mL·cm^−3 | Estimated K1 (Baseline, Amygdala, 2TCM): 0.29 mL·cm^-3·min^-1 | VT/fP using Logan plot (Baseline, Amygdala): 229 mL·cm^-3 | VT/fP (Baseline, Amygdala, one monkey (PBR28 experiment)): 284 mL·cm^-3 | VT/fP (Baseline, Cerebellum, 2TCM, n = 3): 179 mL·cm^−3 | Estimated K1 (Baseline, Cerebellum, 2TCM): 0.34 mL·cm^-3·min^-1 | VT/fP using Logan plot (Baseline, Cerebellum): 172 mL·cm^-3 | VT/fP (Baseline, Cerebellum, one monkey (PBR28 experiment)): 208 mL·cm^-3 | VT/fP (Baseline, Cingulate Cortex, 2TCM, n = 3): 218 mL·cm^−3 | Estimated K1 (Baseline, Cingulate Cortex, 2TCM): 0.30 mL·cm^-3·min^-1 | VT/fP using Logan plot (Baseline, Cingulate Cortex): 208 mL·cm^-3 | VT/fP (Baseline, Cingulate Cortex, one monkey (PBR28 experiment)): 260 mL·cm^-3 | VT/fP (Baseline, Frontal Cortex, 2TCM, n = 3): 201 mL·cm^−3 | Estimated K1 (Baseline, Frontal Cortex, 2TCM): 0.30 mL·cm^-3·min^-1 | VT/fP using Logan plot (Baseline, Frontal Cortex): 192 mL·cm^-3 | VT/fP (Baseline, Frontal Cortex, one monkey (PBR28 experiment)): 241 mL·cm^-3 | VT/fP (Baseline, Hippocampus, 2TCM, n = 3): 220 mL·cm^−3 | Estimated K1 (Baseline, Hippocampus, 2TCM): 0.33 mL·cm^-3·min^-1 | VT/fP using Logan plot (Baseline, Hippocampus): 211 mL·cm^-3 | VT/fP (Baseline, Hippocampus, one monkey (PBR28 experiment)): 253 mL·cm^-3 | VT/fP (Baseline, Insula, 2TCM, n = 3): 224 mL·cm^−3 | Estimated K1 (Baseline, Insula, 2TCM): 0.35 mL·cm^-3·min^-1 | VT/fP using Logan plot (Baseline, Insula): 214 mL·cm^-3 | VT/fP (Baseline, Insula, one monkey (PBR28 experiment)): 264 mL·cm^-3 | VT/fP (Baseline, Occipital Cortex, 2TCM, n = 3): 183 mL·cm^−3 | Estimated K1 (Baseline, Occipital Cortex, 2TCM): 0.31 mL·cm^-3·min^-1 | VT/fP using Logan plot (Baseline, Occipital Cortex): 175 mL·cm^-3 | VT/fP (Baseline, Occipital Cortex, one monkey (PBR28 experiment)): 217 mL·cm^-3 | VT/fP (Baseline, Parietal Cortex, 2TCM, n = 3): 202 mL·cm^−3 | Estimated K1 (Baseline, Parietal Cortex, 2TCM): 0.30 mL·cm^-3·min^-1 | VT/fP using Logan plot (Baseline, Parietal Cortex): 193 mL·cm^-3 | VT/fP (Baseline, Parietal Cortex, one monkey (PBR28 experiment)): 246 mL·cm^-3 | VT/fP (Baseline, Striatum, 2TCM, n = 3): 225 mL·cm^−3 | Estimated K1 (Baseline, Striatum, 2TCM): 0.38 mL·cm^-3·min^-1 | VT/fP using Logan plot (Baseline, Striatum): 215 mL·cm^-3 | VT/fP (Baseline, Striatum, one monkey (PBR28 experiment)): 266 mL·cm^-3 | VT/fP (Baseline, Temporal Cortex, 2TCM, n = 3): 209 mL·cm^−3 | Estimated K1 (Baseline, Temporal Cortex, 2TCM): 0.30 mL·cm^-3·min^-1 | VT/fP using Logan plot (Baseline, Temporal Cortex): 201 mL·cm^-3 | VT/fP (Baseline, Temporal Cortex, one monkey (PBR28 experiment)): 241 mL·cm^-3 | VT/fP (Baseline, Thalamus, 2TCM, n = 3): 218 mL·cm^−3 | Estimated K1 (Baseline, Thalamus, 2TCM): 0.35 mL·cm^-3·min^-1 | VT/fP using Logan plot (Baseline, Thalamus): 208 mL·cm^-3 | VT/fP (Baseline, Thalamus, one monkey (PBR28 experiment)): 259 mL·cm^-3 | VT/fP (Baseline, Whole Brain, 2TCM, n = 3): 203 ± 15 mL·cm^−3 and 203 mL·cm^−3 | Estimated K1 (Baseline, Whole Brain, 2TCM): 0.31 mL·cm^-3·min^-1 | VT/fP using Logan plot (Baseline, Whole Brain): 194 mL·cm^-3 | VT/fP (Baseline, Whole Brain, one monkey (PBR28 experiment)): 240 mL·cm^-3 | VT/fP (Blocked (PK11195 5 mg/kg i.v.), Amygdala, 2TCM, n = 3): 23 mL·cm^−3 | VT/fP (Blocked (PK11195 5 mg/kg i.v.), Cerebellum, 2TCM, n = 3): 26 mL·cm^−3 | VT/fP (Blocked (PK11195 5 mg/kg i.v.), Cingulate Cortex, 2TCM, n = 3): 25 mL·cm^−3 | VT/fP (Blocked (PK11195 5 mg/kg i.v.), Frontal Cortex, 2TCM, n = 3): 26 mL·cm^−3 | VT/fP (Blocked (PK11195 5 mg/kg i.v.), Hippocampus, 2TCM, n = 3): 21 mL·cm^−3 | VT/fP (Blocked (PK11195 5 mg/kg i.v.), Insula, 2TCM, n = 3): 23 mL·cm^−3 | VT/fP (Blocked (PK11195 5 mg/kg i.v.), Occipital Cortex, 2TCM, n = 3): 23 mL·cm^−3 | VT/fP (Blocked (PK11195 5 mg/kg i.v.), Parietal Cortex, 2TCM, n = 3): 24 mL·cm^−3 | VT/fP (Blocked (PK11195 5 mg/kg i.v.), Striatum, 2TCM, n = 3): 26 mL·cm^−3 | VT/fP (Blocked (PK11195 5 mg/kg i.v.), Temporal Cortex, 2TCM, n = 3): 22 mL·cm^−3 | VT/fP (Blocked (PK11195 5 mg/kg i.v.), Thalamus, 2TCM, n = 3): 27 mL·cm^−3 | VT/fP (Blocked (PK11195 5 mg/kg i.v.), Whole Brain, 2TCM, n = 3): 24 mL·cm^−3 | Estimated K1 (Blocked (PK11195), Amygdala, 2TCM): 0.38 mL·cm^-3·min^-1 | VT/fP using Logan plot (Blocked (PK11195), Amygdala): 23 mL·cm^-3 | Estimated K1 (Blocked (PK11195), Cerebellum, 2TCM): 0.62 mL·cm^-3·min^-1 | VT/fP using Logan plot (Blocked (PK11195), Cerebellum): 25 mL·cm^-3 | Estimated K1 (Blocked (PK11195), Cingulate Cortex, 2TCM): 0.34 mL·cm^-3·min^-1 | VT/fP using Logan plot (Blocked (PK11195), Cingulate Cortex): 24 mL·cm^-3 | Estimated K1 (Blocked (PK11195), Frontal Cortex, 2TCM): 0.36 mL·cm^-3·min^-1 | VT/fP using Logan plot (Blocked (PK11195), Frontal Cortex): 25 mL·cm^-3 | Estimated K1 (Blocked (PK11195), Hippocampus, 2TCM): 0.48 mL·cm^-3·min^-1 | VT/fP using Logan plot (Blocked (PK11195), Hippocampus): 21 mL·cm^-3 | Estimated K1 (Blocked (PK11195), Insula, 2TCM): 0.37 mL·cm^-3·min^-1 | VT/fP using Logan plot (Blocked (PK11195), Insula): 23 mL·cm^-3 | Estimated K1 (Blocked (PK11195), Occipital Cortex, 2TCM): 0.40 mL·cm^-3·min^-1 | VT/fP using Logan plot (Blocked (PK11195), Occipital Cortex): 22 mL·cm^-3 | Estimated K1 (Blocked (PK11195), Parietal Cortex, 2TCM): 0.35 mL·cm^-3·min^-1 | VT/fP using Logan plot (Blocked (PK11195), Parietal Cortex): 23 mL·cm^-3 | Estimated K1 (Blocked (PK11195), Striatum, 2TCM): 0.65 mL·cm^-3·min^-1 | VT/fP using Logan plot (Blocked (PK11195), Striatum): 25 mL·cm^-3 | Estimated K1 (Blocked (PK11195), Temporal Cortex, 2TCM): 0.36 mL·cm^-3·min^-1 | VT/fP using Logan plot (Blocked (PK11195), Temporal Cortex): 22 mL·cm^-3 | Estimated K1 (Blocked (PK11195), Thalamus, 2TCM): 0.50 mL·cm^-3·min^-1 | VT/fP using Logan plot (Blocked (PK11195), Thalamus): 26 mL·cm^-3 | Estimated K1 (Blocked (PK11195), Whole Brain, 2TCM): 0.41 mL·cm^-3·min^-1 | VT/fP using Logan plot (Blocked (PK11195), Whole Brain): 24 mL·cm^-3 | VT/fP (Blocked, PBR28 pre-blockade (5 mg/kg), Amygdala, one monkey): 9 mL·cm^-3 | VT/fP (Blocked, PBR28 pre-blockade (5 mg/kg), Cerebellum, one monkey): 10 mL·cm^-3 | VT/fP (Blocked, PBR28 pre-blockade (5 mg/kg), Cingulate Cortex, one monkey): 10 mL·cm^-3 | VT/fP (Blocked, PBR28 pre-blockade (5 mg/kg), Frontal Cortex, one monkey): 10 mL·cm^-3 | VT/fP (Blocked, PBR28 pre-blockade (5 mg/kg), Hippocampus, one monkey): 9 mL·cm^-3 | VT/fP (Blocked, PBR28 pre-blockade (5 mg/kg), Insula, one monkey): 10 mL·cm^-3 | VT/fP (Blocked, PBR28 pre-blockade (5 mg/kg), Occipital Cortex, one monkey): 10 mL·cm^-3 | VT/fP (Blocked, PBR28 pre-blockade (5 mg/kg), Parietal Cortex, one monkey): 10 mL·cm^-3 | VT/fP (Blocked, PBR28 pre-blockade (5 mg/kg), Striatum, one monkey): 10 mL·cm^-3 | VT/fP (Blocked, PBR28 pre-blockade (5 mg/kg), Temporal Cortex, one monkey): 9 mL·cm^-3 | VT/fP (Blocked, PBR28 pre-blockade (5 mg/kg), Thalamus, one monkey): 12 mL·cm^-3 | VT/fP (Blocked, PBR28 pre-blockade (5 mg/kg), Whole Brain, one monkey): 10 mL·cm^-3 | VND/fP (x-intercept of the regression lines) (Lassen plot, monkey brain, n = 3): 27 ± 11 mL· cm^−3 | Increase of K1 in blocked scans compared to baseline scans (all regions, PK11195): about 30% | x-intercept of Lassen plot (VND/fP) (mean ± SD, n = 3): 27 ± 11 | Decrease of VT/fP (binding displaced) after blockade with PK11195 (monkey brain, PK11195 5 mg/kg i.v.): ~ 90% | Mean SUV peak in brain after pre-blockade (monkey brain, after 5 mg/kg PK11195, n = 3): 3.0 ± 0.5 SUV | Brain activity relative to the peak (monkey brain, baseline, at 180 min): 30 % of the peak | Brain activity relative to the peak (monkey brain, baseline, by 110 min): 50 % of the peak | Peak concentration of brain radioactivity (mean SUV peak) (monkey whole brain, baseline, n = 3): 2.0 SUV and 2.0 ± 0.1 SUV | Uptake in the skull (monkey, baseline, blocked by PK11195 and PBR28): No significant uptake; also recorded: low uptake | BPND of whole brain (monkey, ratio of specific binding to nondisplaceable uptake, n = 3): 7.6 ± 4.3 and 7.6
